Experimental data taken from publication PMC6627469 (Journal of Medicinal Chemistry, 2019).
“Also recorded” adds a separate entry of the source.

What was measured:
[1] = test system: Influenza A virus WU95 (containing a H3 protein of a human H3N2 virus); type: binding
H3-containg WU95 virus = assay: Hemagglutination inhibition; type: cell-based, Influenza A virus; conditions: relative to the potency of 8, corrected for valency
IAV WU95 = type: cell-based, Influenza A virus

Row | Structure (SMILES) | IC50 BLI [1] | rel pot. per sugar (HAI) (H3-containg WU95 virus) | rel pot. (BLI) [1] | rel pot. per sugar (BLI) [1] | effect on infection, single agent (IAV WU95)
1 | CC(=O)N[C@H]1[C@H](O[C@H]2[C@@H](O)[C@@H](CO)O[C@@H](O[C@H]3[C@H](O)[C@@H](O)[C@H](n4cc(-c5ccc(-c6cn(CCCC(=O)Nc7cccc(-c8cc(-c9cccc(NC(=O)CCCn%10cc(-c%11ccc(-c%12cn([C@@H]%13O[C@H](CO)[C@@H](O[C@@H]%14O[C@H](CO)[C@H](O)[C@H](O[C@@H]%15O[C@H](CO)[C@@H](O[C@@H]%16O[C@H](CO)[C@H](O)[C@H](O)[C@H]%16O)[C@H](O)[C@H]%15NC(C)=O)[C@H]%14O)[C@H](O)[C@H]%13O)nn%12)cc%11)nn%10)c9)cc(-c9cccc(NC(=O)CCCn%10cc(-c%11ccc(-c%12cn([C@@H]%13O[C@H](CO)[C@@H](O[C@@H]%14O[C@H](CO)[C@H](O)[C@H](O[C@@H]%15O[C@H](CO)[C@@H](O[C@@H]%16O[C@H](CO)[C@H](O)[C@H](O)[C@H]%16O)[C@H](O)[C@H]%15NC(C)=O)[C@H]%14O)[C@H](O)[C@H]%13O)nn%12)cc%11)nn%10)c9)c8)c7)nn6)cc5)nn4)O[C@@H]3CO)[C@@H]2O)O[C@H](CO)[C@@H](O[C@@H]2O[C@H](CO)[C@H](O)[C@H](O)[C@H]2O)[C@@H]1O [Compound 13] | did not yield any detectable inhibition in the assay up to the 20 μM; also recorded: no inhib at 20 μM | – | – | – | –
2 | CC(=O)N[C@H]1[C@H]([C@H](O)[C@H](O)CO)O[C@@](OC[C@H]2O[C@@H](O[C@H]3[C@H](O)[C@@H](O)[C@H](OCc4cn(CCCC(=O)Nc5cccc(-c6cc(-c7cccc(NC(=O)CCCn8cc(CO[C@@H]9O[C@H](CO)[C@@H](O[C@@H]%10O[C@H](CO[C@]%11(C(=O)O)C[C@H](O)[C@@H](NC(C)=O)[C@H]([C@H](O)[C@H](O)CO)O%11)[C@H](O)[C@H](O)[C@H]%10O)[C@H](O)[C@H]9O)nn8)c7)cc(-c7cccc(NC(=O)CCCn8cc(CO[C@@H]9O[C@H](CO)[C@@H](O[C@@H]%10O[C@H](CO[C@]%11(C(=O)O)C[C@H](O)[C@@H](NC(C)=O)[C@H]([C@H](O)[C@H](O)CO)O%11)[C@H](O)[C@H](O)[C@H]%10O)[C@H](O)[C@H]9O)nn8)c7)c6)c5)nn4)O[C@@H]3CO)[C@H](O)[C@@H](O)[C@H]2O)(C(=O)O)C[C@@H]1O [Compound 10] | – | 2 | 20 (7) | 20 (7) | –
3 | C#CCO[C@@H]1O[C@H](CO)[C@@H](O[C@@H]2O[C@H](CO[C@]3(C(=O)O)C[C@H](O)[C@@H](NC(C)=O)[C@H]([C@H](O)[C@H](O)CO)O3)[C@H](O)[C@H](O)[C@H]2O)[C@H](O)[C@H]1NC(C)=O [Compound 7] | – | – | 1 (1) | 1 (1) | –
4 | CCC(CC)O[C@@H]1C=C(C(=O)O)C[C@H](N)[C@H]1NC(C)=O [oseltamivir carboxylate] | – | – | – | – | little effect
5 | CC(=O)N[C@H]1[C@H]([C@H](O)[C@H](O)CO)O[C@@](OC[C@H]2O[C@@H](O[C@H]3[C@H](O)[C@@H](O)[C@H](OCc4cn([C@@H]5O[C@H](CO)[C@@H](n6cc(-c7ccc(-c8cn([C@H]9[C@H](O)[C@@H](O)[C@H](n%10cc(CO[C@@H]%11O[C@H](CO)[C@@H](O[C@@H]%12O[C@H](CO[C@]%13(C(=O)O)C[C@H](O)[C@@H](NC(C)=O)[C@H]([C@H](O)[C@H](O)CO)O%13)[C@H](O)[C@H](O)[C@H]%12O)[C@H](O)[C@H]%11O)nn%10)O[C@@H]9CO)nn8)cc7)nn6)[C@H](O)[C@H]5O)nn4)O[C@@H]3CO)[C@H](O)[C@@H](O)[C@H]2O)(C(=O)O)C[C@@H]1O [Compound 17] | – | – | 23 (12) | 23 (12) | –
